Measured values published in patent US10471046B2, “Method for treating, preventing, or reducing the risk of skin infection” (Melinta Subsidiary Corp., priority 2014, dated 2019).
In brackets after ≈: the same amount, converted by molar mass.

Test system: S. aureus
Assay: Minimum inhibitory concentrations (MICs) for S. aureus of exemplary compounds (Table 2)
Type: cell-based
Settings: Staphylococcus aureus, minimum inhibitory concentrations for S. aureus; read-out: MICs
Method in brief: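 Growth of S. aureus in media with or without compound, by broth microdilution in microtiter trays following NCCLS M7-A5 guidelines. Values are MICs in μg/mL.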

MIC | SMILES
1 µg/mL (≈ 2.02 µM) | CC(=O)NC[C@H]1CN(c2ccc(-c3ccc(Cn4cnc5c(Cl)ncnc54)cc3)c(F)c2)C(=O)O1 [Compound 1100, N-{3-[4′-(6-Chloro-purin-9-ylmethyl)-2-fluoro-biphenyl-4-yl]-2-oxo-oxazolidin-5-(S)-ylmethyl}-acetamide]
0.25 µg/mL (≈ 0.585 µM) | CC(=O)NC[C@H]1CN(c2ccc(-c3ccc(CN4CCOC4=O)cc3)c(F)c2)C(=O)O1 [Compound 1101, N-{3-[2-Fluoro-4′-(2-oxo-oxazolidin-3-ylmethyl)-biphenyl-4-yl]-2-oxo-oxazolidin-5-(S)-ylmethyl}-acetamide]
1 µg/mL (≈ 1.92 µM) | CC(=O)NC[C@H]1CN(c2ccc(-c3ccc(Cn4cnc5c(NCCF)ncnc54)cc3)c(F)c2)C(=O)O1 [Compound 1102, N-(3-{2-Fluoro-4′-[6-(2-fluoro-ethylamino)-purin-9-ylmethyl]-biphenyl-4-yl}-2-oxo-oxazolidin-5-(S)-ylmethyl)-acetamide]
1 µg/mL (≈ 1.85 µM) | CC(=O)NC[C@H]1CN(c2ccc(-c3ccc(Cn4cnc5c(NCC(F)F)ncnc54)cc3)c(F)c2)C(=O)O1 [Compound 1103, N-(3-{4′-[6-(2,2-Difluoro-ethylamino)-purin-9-ylmethyl]-2-fluoro-biphenyl-4-yl}-2-oxo-oxazolidin-5-(S)-ylmethyl)-acetamide]
1 µg/mL (≈ 1.79 µM) | CC(=O)NC[C@H]1CN(c2ccc(-c3ccc(Cn4cnc5c(NCC(F)(F)F)ncnc54)cc3)c(F)c2)C(=O)O1 [Compound 1104, N-(3-{2-Fluoro-4′-[6-(2,2,2-trifluoro-ethylamino)-purin-9-ylmethyl]-biphenyl-4-yl}-2-oxo-oxazolidin-5-(S)-ylmethyl)-acetamide]
1 µg/mL (≈ 1.99 µM) | CC(=O)NC[C@H]1CN(c2ccc(-c3ccc(Cn4cnc5c(N(C)C)ncnc54)cc3)c(F)c2)C(=O)O1 [Compound 1105, N-{3-[4′-(6-Dimethylamino-purin-9-ylmethyl)-2-fluoro-biphenyl-4-yl]-2-oxo-oxazolidin-5-(S)-ylmethyl}-acetamide]
1 µg/mL (≈ 2.04 µM) | CNc1ncnc2c1ncn2Cc1ccc(-c2ccc(N3C[C@H](CNC(C)=O)OC3=O)cc2F)cc1 [Compound 1106, N-{3-[2-Fluoro-4′-(6-methylamino-purin-9-ylmethyl)-biphenyl-4-yl]-2-oxo-oxazolidin-5-(S)-ylmethyl}-acetamide]
2 µg/mL (≈ 3.75 µM) | CC(=O)NC[C@H]1CN(c2ccc(-c3ccc(Cn4cnc5c(NCCCO)ncnc54)cc3)c(F)c2)C(=O)O1 [Compound 1107, N-(3-{2-Fluoro-4′-[6-(3-hydroxy-propylamino)-purin-9-ylmethyl]-biphenyl-4-yl}-2-oxo-oxazolidin-5-(S)-ylmethyl)-acetamide]
2 µg/mL (≈ 3.64 µM) | CSCCNc1ncnc2c1ncn2Cc1ccc(-c2ccc(N3C[C@H](CNC(C)=O)OC3=O)cc2F)cc1 [Compound 1108]
2 µg/mL (≈ 3.65 µM) | CC(=O)NC[C@H]1CN(c2ccc(-c3ccc(Cn4cnc5c(NCCCCO)ncnc54)cc3)c(F)c2)C(=O)O1 [Compound 1109, N-(3-{2-Fluoro-4′-[6-(4-hydroxy-butylamino)-purin-9-ylmethyl]-biphenyl-4-yl}-2-oxo-oxazolidin-5-(S)-ylmethyl)-acetamide]
1 µg/mL (≈ 2.1 µM) | CC(=O)NC[C@H]1CN(c2ccc(-c3ccc(Cn4cnc5c(N)ncnc54)cc3)c(F)c2)C(=O)O1 [Compound 1110, N-{3-[4′-(6-Amino-purin-9-ylmethyl)-2-fluoro-biphenyl-4-yl]-2-oxo-oxazolidin-5-(S)-ylmethyl}-acetamide]
2 µg/mL (≈ 4.2 µM) | CC(=O)NC[C@H]1CN(c2ccc(-c3ccc(Cn4cnc5c(=O)[nH]cnc54)cc3)c(F)c2)C(=O)O1 [Compound 1111, N-{3-[2-Fluoro-4′-(6-oxo-1,6-dihydro-purin-9-ylmethyl)-biphenyl-4-yl]-2-oxo-oxazolidin-5-(S)-ylmethyl}-acetamide]
1 µg/mL (≈ 2.42 µM) | CC(=O)NC[C@H]1CN(c2ccc(-c3ccc(CN4CCCO4)cc3)c(F)c2)C(=O)O1 [Compound 1112, N-[3-(2-Fluoro-4′-isoxazolidin-2-ylmethyl-biphenyl-4-yl)-2-oxo-oxazolidin-5-(S)-ylmethyl]-acetamide]
2 µg/mL (≈ 4.72 µM) | CC(=O)NC[C@H]1CN(c2ccc(-c3ccc(Cn4ccnc4N)cc3)c(F)c2)C(=O)O1 [Compound 1113, N-{3-[4′-(2-Amino-imidazol-1-ylmethyl)-2-fluoro-biphenyl-4-yl]-2-oxo-oxazolidin-5-(S)-ylmethyl}-acetamide]
1 µg/mL (≈ 2.13 µM) | CC(=O)NC[C@H]1CN(c2ccc(-c3ccc(CNc4nc(CN)ns4)cc3)c(F)c2)C(=O)O1 [Compound 2012, N-(3-{4′-[(3-Aminomethyl-[1,2,4]thiadiazol-5-ylamino)-methyl]-2-fluoro-biphenyl-4-yl}-2-oxo-oxazolidin-5-(S)-ylmethyl)-acetamide]
1 µg/mL (≈ 1.85 µM) | CC(=O)NC[C@H]1CN(c2ccc(-c3ccc(CNc4nc(CNC(=O)[C@H](C)N)ns4)cc3)c(F)c2)C(=O)O1 [Compound 2013, N-[5-({4′[5-(S)-(Acetylamino-methyl)-2-oxo-oxazolidin-3-yl]-2′-fluoro-biphenyl-4-ylmethyl}-amino)-[1,2,4]thiadiazol-3-ylmethyl]-2-(S)-amino-propionamide]

MIC | SMILES
2 µg/mL (≈ 3.34 µM) | CC(=O)NC[C@H]1CN(c2ccc(-c3ccc(CNc4nc(CNC(=O)[C@@H](N)CCCCN)ns4)cc3)c(F)c2)C(=O)O1 [Compound 2014, 2,6-Diamino-hexanoic acid [5-({4′-[5-(acetylamino-methyl)-2-oxo-oxazolidin-3-yl]-2′-fluoro-biphenyl-4-ylmethyl}-amino)-[1,2,4]thiadiazol-3-ylmethyl]-amide]
0.25 µg/mL (≈ 0.548 µM) | CC(=O)NC[C@H]1CN(c2ccc(-c3ccc(CSc4nnnn4C)cc3)c(F)c2)C(=O)O1 [Compound 2015, N-{3-[2-Fluoro-4′-(1-methyl-1H-tetrazol-5-ylsulfanylmethyl)-biphenyl-4-yl]-2-oxo-oxazolidin-5-(S)-ylmethyl}-acetamide]
0.25 µg/mL (≈ 0.566 µM) | CC(=O)NC[C@H]1CN(c2ccc(-c3ccc(CSc4cnn[nH]4)cc3)c(F)c2)C(=O)O1 [Compound 2016, N-{3-[2-Fluoro-4′-(3H-[1,2,3]triazol-4-ylsulfanylmethyl)-biphenyl-4-yl]-2-oxo-oxazolidin-5-(S)-ylmethyl}-acetamide]
0.25 µg/mL (≈ 0.554 µM) | CC(=O)NC[C@H]1CN(c2ccc(-c3ccc(CSc4ccccn4)cc3)c(F)c2)C(=O)O1 [Compound 2018, N-{3-[2-Fluoro-4′-(pyridin-2-ylsulfanylmethyl)-biphenyl-4-yl]-2-oxo-oxazolidin-5-(S)-ylmethyl}-acetamide]
1 µg/mL (≈ 2.21 µM) | CC(=O)NC[C@H]1CN(c2ccc(-c3ccc(CSc4ccncc4)cc3)c(F)c2)C(=O)O1 [Compound 2019, N-{3-[2-Fluoro-4′-(pyridin-4-ylsulfanylmethyl)-biphenyl-4-yl]-2-oxo-oxazolidin-5-(S)-ylmethyl}-acetamide]
0.25 µg/mL (≈ 0.529 µM) | CC(=O)NC[C@H]1CN(c2ccc(-c3ccc(C[S+]([O-])c4nnnn4C)cc3)c(F)c2)C(=O)O1 (stereo partly drawn) [Compound 2020, N-{3-[2-Fluoro-4′-(1-methyl-1H-tetrazole-5-sulfinylmethyl)-biphenyl-4-yl]-2-oxo-oxazolidin-5-(S)-ylmethyl}-acetamide]
2 µg/mL (≈ 4.37 µM) | CC(=O)NC[C@H]1CN(c2ccc(-c3ccc(C[S+]([O-])c4cnn[nH]4)cc3)c(F)c2)C(=O)O1 (stereo partly drawn) [Compound 2021, N-{3-[2-Fluoro-4′-(3H-[1,2,3]triazole-4-sulfinylmethyl)-biphenyl-4-yl]-2-oxo-oxazolidin-5-(S)-ylmethyl}-acetamide]
2 µg/mL (≈ 4.28 µM) | CC(=O)NC[C@H]1CN(c2ccc(-c3ccc(C[S+]([O-])c4ccncc4)cc3)c(F)c2)C(=O)O1 (stereo partly drawn) [Compound 2022, N-{3-[2-Fluoro-4′-(pyridine-4-sulfinylmethyl)-biphenyl-4-yl]-2-oxo-oxazolidin-5-(S)-ylmethyl}-acetamide]
1 µg/mL (≈ 2.14 µM) | CC(=O)NC[C@H]1CN(c2ccc(-c3ccc(C[S+]([O-])c4ccccn4)cc3)c(F)c2)C(=O)O1 (stereo partly drawn) [Compound 2023, N-{3-[2-Fluoro-4′-(pyridine-2-sulfinylmethyl)-biphenyl-4-yl]-2-oxo-oxazolidin-5-(S)-ylmethyl}-acetamide]
0.25 µg/mL (≈ 0.512 µM) | CC(=O)NC[C@H]1CN(c2ccc(-c3ccc(CS(=O)(=O)c4nnnn4C)cc3)c(F)c2)C(=O)O1 [Compound 2024, N-{3-[2-Fluoro-4′-(1-methyl-1H-tetrazole-5-sulfonylmethyl)-biphenyl-4-yl]-2-oxo-oxazolidin-5-(S)-ylmethyl}-acetamide]
8 µg/mL (≈ 16.9 µM) | CC(=O)NC[C@H]1CN(c2ccc(-c3ccc(CS(=O)(=O)c4cnn[nH]4)cc3)c(F)c2)C(=O)O1 [Compound 2025, N-{3-[2-Fluoro-4′-(3H-[1,2,3]triazole-4-sulfonylmethyl)-biphenyl-4-yl]-2-oxo-oxazolidin-5-(S)-ylmethyl}-acetamide]
0.25 µg/mL (≈ 0.549 µM) | CC(=O)NC[C@H]1CN(c2ccc(-c3ccc(CCSc4cnn[nH]4)cc3)c(F)c2)C(=O)O1 [Compound 2026, N-(3-{2-Fluoro-4′-[2-(3H-[1,2,3]triazol-4-ylsulfanyl)-ethyl]-biphenyl-4-yl}-2-oxo-oxazolidin-5-(S)-ylmethyl)-acetamide]
1 µg/mL (≈ 1.95 µM) | CC(=O)NC[C@H]1CN(c2ccc(-c3ccc(CSc4nnnn4CCN(C)C)cc3)c(F)c2)C(=O)O1 [Compound 2027, N-(3-{4′-[1-(2-Dimethylamino-ethyl)-1H-tetrazol-5-ylsulfanylmethyl]-2-fluoro-biphenyl-4-yl}-2-oxo-oxazolidin-5-(S)-ylmethyl)-acetamide]
0.25 µg/mL (≈ 0.548 µM) | CC(=O)NC[C@H]1CN(c2ccc(-c3ccc(CSc4nnc(N)[nH]4)cc3)c(F)c2)C(=O)O1 [Compound 2028, N-{3-[4′-(5-Amino-4H-[1,2,4]triazol-3-ylsulfanylmethyl)-2-fluoro-biphenyl-4-yl]-2-oxo-oxazolidin-5-(S)-ylmethyl}-acetamide]
0.25 µg/mL (≈ 0.545 µM) | CC(=O)NC[C@H]1CN(c2ccc(-c3ccc(CSc4nncs4)cc3)c(F)c2)C(=O)O1 [Compound 2029, N-{3-[2-Fluoro-4′-([1,3,4]thiadiazol-2-ylsulfanylmethyl)-biphenyl-4-yl]-2-oxo-oxazolidin-5-(S)-ylmethyl}-acetamide]
1 µg/mL (≈ 2.19 µM) | CC(=O)NC[C@H]1CN(c2ccc(-c3ccc(CSc4nccs4)cc3)c(F)c2)C(=O)O1 [Compound 2030, N-{3-[2-Fluoro-4′-(thiazol-2-ylsulfanylmethyl)-biphenyl-4-yl]-2-oxo-oxazolidin-5-(S)-ylmethyl}-acetamide]
